# Test results reported in US20190119348A1, “PARATHYROID HORMONE RECEPTOR 1 ANTAGONIST AND INVERSE AGONIST POLYPEPTIDES AND METHODS OF THEIR USE” (The General Hospital Corporation, priority 2016, published 2019).
# Where two headings read alike, the source gives them in different places. Where a SMILES comes first, the peptide text is derived from it. [ ]: non-standard residue; d: D form.
# Experiments:
# PTHR1 (hPTHR1) = molecular target: T1, PTHR1 (hPTHR1) (Homo sapiens, UniProt Q03431); assay: Radioligand competition binding in GP-2.3 cells; settings: for IC50: means of four experiments
# T1 construct: expressed in transfected cells; host or cells: GP-2.3 (HEK-293 stably transfected with hPTHR1 and GloSensor)
# T1 sequence (Q03431 27-593): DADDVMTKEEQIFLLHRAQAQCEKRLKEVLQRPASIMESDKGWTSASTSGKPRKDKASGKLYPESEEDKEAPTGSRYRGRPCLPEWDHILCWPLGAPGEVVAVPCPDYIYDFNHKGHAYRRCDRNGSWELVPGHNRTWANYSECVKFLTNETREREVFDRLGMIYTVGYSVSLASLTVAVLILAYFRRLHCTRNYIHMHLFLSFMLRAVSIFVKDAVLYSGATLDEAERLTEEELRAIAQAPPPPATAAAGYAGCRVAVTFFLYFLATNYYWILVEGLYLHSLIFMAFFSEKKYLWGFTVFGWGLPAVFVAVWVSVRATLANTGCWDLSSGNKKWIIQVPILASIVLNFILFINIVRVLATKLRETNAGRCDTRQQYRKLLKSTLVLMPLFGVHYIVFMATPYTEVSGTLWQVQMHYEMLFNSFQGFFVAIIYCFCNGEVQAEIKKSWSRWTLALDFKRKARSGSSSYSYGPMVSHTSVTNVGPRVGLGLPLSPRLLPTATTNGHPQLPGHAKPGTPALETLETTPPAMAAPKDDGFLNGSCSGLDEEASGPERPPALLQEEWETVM
# Procedure: Intact cell binding reactions were performed in 96-well plates, and, following incubation, the cells were lysed with 1N NaOH, and the lysate was counted for gamma radiation. For membrane dissociation assays, reactions were assembled in 15 cc tubes, and, at times following membrane addition (t=0), aliquots were withdrawn and filtered through a well of a vacuum filtration 96-well plate, rinsed, and, after washing, the filters were removed and counted for gamma irradiation. […] Curves were fit to the data using a four-parameter sigmoidal dose-response equation.
# Pharmacological properties of the ligands were assessed in cells expressing the PTHR1 and the GloSensor™ cAMP reporter. The assays used GP-2.3 cells, derived from HEK293 cells by stable transfection with the hPTHR1 and GloSensor™, as well as SGS-72 cells, which are derived from the human osteosarcoma cell line, Saos-2, in which is endogenously expressed the hPTHR1, by stable transfection with GloSensor™. Binding of representative polypeptides to the PTHR1 was assessed in GP-2.3 cells by radioligand competition methods (FIGS. 1A and 1B, Table 3).
# The assays were performed in GP-2.3 cells with the two tracer ^125I-radioligands shown; values are half-maximal inhibitory concentration (pIC50) and corresponding nanomolar value (below) derived from curve fitting ligand dose-response data. Data are means of four experiments.
# PTHR1 [1] = molecular target: T2, PTHR1 (Homo sapiens, UniProt Q03431); assay: Residual agonist activity, cAMP luminescence in GP-2.3 cells; type: cell-based; settings: ligands applied directly to GP-2.3 cells
# T2 construct: expressed in transfected cells; host or cells: GP-2.3 (HEK-293 stably transfected with hPTHR1 and GloSensor)
# T2 sequence (Q03431 27-593): T1 sequence (Q03431 27-593)
# Procedure: cAMP signaling was assessed in the HEK293-derived or SaOS2-derived cell lines stably expressing the luciferase-based GloSensor™ cAMP reporter (Hattersley et al., Paper presented at: Novel Signaling Mechanisms and Bone Cell Biology 2014; Binkowski et al., Methods in molecular biology. 756:263-271). HEK-293 cells were further transfected to stably express the hPTHR1, hPTHR1-H223R, or hPTHR1-T410P. The cells were seeded into 96-well white plates and were assayed 24 to 48 hours post-confluency. Assays were performed at room temperature in CO2-independent culture media (Life Technologies, Corp., Carlsbad, Calif.) containing 0.1% BSA (CIDB). The cells were pre-loaded with luciferin (0.5 mM in CIDB) for 15 minutes, then PTH peptides were added at varying concentrations. cAMP-dependent luminescence was measured at two-minute intervals using a PerkinElmer Envision plate reader. The time at which maximum luminescence (cps) observed with agonist alone, typically at 10-20 minutes after agonist addition, was used to obtain data from wells containing antagonist with or without agonist, to thus generate antagonist ligand dose-response curves. The resulting cps values were then plotted against ligand concentration using GraphPad Prism 7.0 software and a four-parameter logistics curve fitting equation, which yielded parameters of inhibitory potency (pIC50).
# PTHR1 [2] = molecular target: T3, PTHR1 (Mus musculus, UniProt P41593); assay: Blood Ca2+ in wild-type mice after co-injection with PTH(1-34); type: in vivo; design: from tissue; host or cells: whole animal, wild-type mice (C57BL/6J per methods); settings: intravenous co-injection with PTH(1-34)
# T3 sequence (P41593 27-591): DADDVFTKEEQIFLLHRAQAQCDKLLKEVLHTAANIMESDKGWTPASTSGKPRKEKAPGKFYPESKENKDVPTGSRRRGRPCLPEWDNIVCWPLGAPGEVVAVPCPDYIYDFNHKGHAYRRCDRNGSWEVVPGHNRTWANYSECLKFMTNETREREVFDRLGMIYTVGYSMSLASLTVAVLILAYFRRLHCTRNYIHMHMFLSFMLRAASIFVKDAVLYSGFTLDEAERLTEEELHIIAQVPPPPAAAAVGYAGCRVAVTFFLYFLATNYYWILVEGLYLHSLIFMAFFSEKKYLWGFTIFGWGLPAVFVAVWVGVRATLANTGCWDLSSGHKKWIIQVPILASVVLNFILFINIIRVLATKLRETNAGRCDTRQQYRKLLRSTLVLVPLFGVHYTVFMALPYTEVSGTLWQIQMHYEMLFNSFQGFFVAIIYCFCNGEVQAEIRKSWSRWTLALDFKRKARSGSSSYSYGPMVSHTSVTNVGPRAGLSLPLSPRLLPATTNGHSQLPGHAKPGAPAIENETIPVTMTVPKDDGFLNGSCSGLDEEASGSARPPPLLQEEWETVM
# From the text: Wilde-type, ca. 10-week old male C57BL/6J mice were purchased from the Charles River Laboratories (Wilmington, Mass., USA). The origin and method of breeding of Col1-H223R “Jansen's” transgenic mice is described by Calvi et al. (J. Clin. Invest., 107:277-286, 2001). Mice were maintained in facilities operated by the Center for Comparative Research of the Massachusetts General Hospital, and acclimated in the facilities for seven days prior to being used for study. All experimental procedures were approved by the MGH Institutional Animal Care and Use Committee (IACUC). In each study, animals were assigned randomly to treatment groups. Where possible, power calculations established that the number of animals used per study group was sufficient to detect statistically significant differences in intended primary experimental outcomes (i.e., changes in serum Ca and Pi).
# Mice were injected IV via the tail vein or subcutaneously with ligands in vehicle (0.05% Tween80; 10 mM citrate; 150 mM NaCl; pH 5.0) to give the intended final ligand dose (e.g. 50 nmol/kg body weight). At times immediately before (t=0) and after injection, tail vein blood was collected and analyzed for blood ionized calcium (Ca^2+) measured with a RAPIDLAB 348 analyzer (SIEMENS Healthcare Diagnostic, United Kingdom).
compound,measurement,setting,value
"CC[C@H](C)[C@H](N)C(=O)N[C@@H](CCC(N)=O)C(=O)N[C@@H](CC(C)C)C(=O)N[C@@H](CCSC)C(=O)N[C@@H](Cc1c[nH]cn1)C(=O)N[C@@H](CCC(N)=O)C(=O)N[C@@H](CCCNC(=N)N)C(=O)N[C@H](Cc1c[nH]c2ccccc12)C(=O)N[C@@H](CCCCN)C(=O)N[C@@H](Cc1c[nH]c2ccccc12)C(=O)N[C@H](C(=O)N[C@@H](CCC(N)=O)C(=O)N[C@@H](CC(=O)O)C(=O)N[C@@H](C)C(=O)N[C@@H](CCCNC(=N)N)C(=O)N[C@@H](CCCNC(=N)N)C(=O)N[C@@H](CCCNC(=N)N)C(=O)N[C@@H](C)C(=O)N[C@@H](Cc1c[nH]c2ccccc12)C(=O)N[C@@H](CC(C)C)C(=O)N[C@@H](Cc1c[nH]cn1)C(=O)N[C@@H](CCCCN)C(=O)N[C@@H](CC(C)C)C(=O)N[C@H](C(=O)N[C@@H](C)C(=O)N[C@@H](CCC(=O)O)C(=O)N[C@H](C(=O)N[C@@H](Cc1c[nH]cn1)C(=O)N[C@H](C(=O)N[C@@H](C)C(=O)N[C@@H](CCC(=O)O)C(=O)N[C@H](C(N)=O)[C@@H](C)CC)[C@@H](C)O)[C@@H](C)CC)[C@@H](C)CC)[C@@H](C)CC [compound 1949, dW12, W23-LA-PTH(5-36)] (H-IQLMHQR[dW]KWIQDARRRAWLHKLIAEIHTAEI-NH2; N-terminus assumed)",apparent PTHR1 affinity compared with dTrp^12-PTH(7-34)-1894,PTHR1 (hPTHR1); radioligand competition,at least as strong
same,IC50,"PTHR1 (hPTHR1); tracer ^125I-PTH(1-34), read-out: half-maximal inhibitory concentration, corresponding nanomolar value, tracer ^125I-PTH(1-34)",22.3 nM
same,IC50,"PTHR1 (hPTHR1); tracer ^125I-PTHrP(5-36), read-out: half-maximal inhibitory concentration, corresponding nanomolar value, tracer ^125I-PTHrP(5-36)",17.7 nM
same,residual agonist activity compared with dTrp^12-PTH(7-34)-1894,PTHR1 [1],less residual agonist activity
same,effect on calcemic response to PTH(1-34) (FIG. 11),PTHR1 [2],inhibited the capacity of the injected PTH(1-34) agonist to induce a calcemic response
